Test systems include SW-620 colon; MDA-MB-231 breast; HCT-15 colon; UACC-62 melanoma; T-47D breast; COLO 205 colon; NCI-H226 lung; LOX IMVI melanoma; NCI-H522 lung; HOP-92 NSCLC.
Common to all, as to assay: growth of human tumour cells (NCI), 48 h

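Dose response: 5 concentrations. Exposure: 48 h. Format: 96-well plates. Endpoint: linear interpolation; highest concentration if not reached. GI50 = concentration required for 50% inhibition of growth. TGI marks complete inhibition of growth.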 A value given as a limit tells only on which side of the number the result lay.

Turning to `Cc1cnc(Nc2ccc(N3CCN(C)CC3)cc2)nc1Nc1ccc(Cl)c(NS(=O)(=O)C(C)(C)C)c1`, the GI50 in the assay with SW-620 colon was 0.232 µM; in the assay on MDA-MB-231 breast, 0.159 µM; in the assay with HCT-15 colon it was 0.168 µM; with UACC-62 melanoma, 0.0808 µM; in the assay with T-47D breast, 0.349 µM; with COLO 205 colon it was 0.094 µM. The GI50 with NCI-H226 lung was 0.23 µM; in the assay on LOX IMVI melanoma it was 0.169 µM; in the assay on NCI-H522 lung, 0.073 µM; in the assay with HOP-92 NSCLC it was 0.17 µM. Further, the TGI came out at 5.45 µM in the assay with SW-620 colon; 2.23 µM in the assay on MDA-MB-231 breast; 3.18 µM in the assay with HCT-15 colon; 1.68 µM in the assay on UACC-62 melanoma; 15.5 µM in the assay on T-47D breast; 0.543 µM in the assay with COLO 205 colon. The TGI in the assay with NCI-H226 lung was determined as 2.09 µM; in the assay with LOX IMVI melanoma, 0.866 µM; in the assay on NCI-H522 lung, 1.6 µM; in the assay on HOP-92 NSCLC it was 1.59 µM.

As to `COc1cc(/C=C/c2cc(/C=C/c3ccc(O)c(OC)c3)n(C(=O)Nc3ccc(Cl)cc3)n2)ccc1O`, the GI50 with SW-620 colon was 0.49 µM; in the assay with MDA-MB-231 breast, 0.975 µM; in the assay on HCT-15 colon, 0.43 µM; in the assay with UACC-62 melanoma, 0.551 µM; in the assay on T-47D breast, 1.25 µM; in the assay on COLO 205 colon, 1.95 µM. Also, the GI50 in the assay with NCI-H226 lung was 2.16 µM; with LOX IMVI melanoma it was 0.448 µM; in the assay with NCI-H522 lung, 0.215 µM; in the assay with HOP-92 NSCLC, 2.14 µM. Also, the TGI in the assay with SW-620 colon was determined as 2.73 µM; with MDA-MB-231 breast, 10.7 µM; in the assay with HCT-15 colon, 11.6 µM; in the assay with UACC-62 melanoma, 2.24 µM; in the assay with T-47D breast it was 4.17 µM; in the assay with COLO 205 colon it was 3.43 µM. Besides, the TGI in the assay on NCI-H226 lung stood at 7.92 µM; in the assay on LOX IMVI melanoma it was 2.26 µM; in the assay on NCI-H522 lung it was 0.802 µM; with HOP-92 NSCLC it was 7.04 µM.

Take `CN(C)c1ccc(C(c2ccc(Cl)cc2)c2ccc(N(C)C)cc2)cc1`: the TGI in the assay on SW-620 colon, in the assay on MDA-MB-231 breast, with HCT-15 colon, in the assay on UACC-62 melanoma, with T-47D breast and in the assay with COLO 205 colon was more than 100 µM in each case. Further, the TGI in the assay on LOX IMVI melanoma, with NCI-H522 lung and in the assay with HOP-92 NSCLC was more than 100 µM each time.

In the case of `C[C@]12CCNC(=O)C=C1CC[C@@H]1C2CC[C@@]2(C)C1CC[C@@H]2OC(=O)COc1ccc(N(CCCl)CCCl)cc1` (stereo partly specified), the TGI is 16.5 µM in the assay with SW-620 colon; 34.8 µM with MDA-MB-231 breast; 13.1 µM in the assay on HCT-15 colon; 6.41 µM in the assay with UACC-62 melanoma; 9.03 µM in the assay on T-47D breast; 23.9 µM in the assay with COLO 205 colon. In addition, the TGI with NCI-H226 lung was found to be 28.5 µM; in the assay on LOX IMVI melanoma, 22.8 µM; in the assay with NCI-H522 lung, 3.08 µM; in the assay on HOP-92 NSCLC, 23.3 µM.

Take `CC1=C(C)C2(O)C(=C(C)C1=O)/C(=C(/O)c1ccccc1)c1nc3ccccc3n12` (stereo unspecified): the GI50 is 29.4 µM with SW-620 colon; 15.4 µM with MDA-MB-231 breast; 19.3 µM in the assay with HCT-15 colon; 14.5 µM with T-47D breast; 17.2 µM in the assay on COLO 205 colon; 23.6 µM in the assay on NCI-H226 lung. In addition, the GI50 with LOX IMVI melanoma is 16.7 µM; in the assay with NCI-H522 lung, 19.6 µM; in the assay on HOP-92 NSCLC, 16.1 µM. The TGI in the assay on SW-620 colon was more than 100 µM; with MDA-MB-231 breast, 30 µM; with HCT-15 colon, 46.5 µM; in the assay with T-47D breast, 33.1 µM; in the assay with COLO 205 colon, 31.3 µM; with NCI-H226 lung it was 58.1 µM. In addition, the TGI in the assay on LOX IMVI melanoma worked out at 34.6 µM; with NCI-H522 lung, 44.2 µM; in the assay with HOP-92 NSCLC, 41.7 µM.

Turning to `c1ccc([As]=[As]c2ccccc2)cc1` (stereo unspecified), the GI50 was 0.586 µM in the assay with SW-620 colon; 0.88 µM in the assay on MDA-MB-231 breast; 0.416 µM in the assay on HCT-15 colon; 1.12 µM in the assay on UACC-62 melanoma; 0.221 µM with T-47D breast; 1.13 µM with COLO 205 colon. The GI50 with NCI-H226 lung was 1.46 µM; in the assay on LOX IMVI melanoma it was 0.117 µM; in the assay on NCI-H522 lung it was 1.09 µM; in the assay with HOP-92 NSCLC, 1.22 µM. In addition, the TGI in the assay on SW-620 colon is 2.02 µM; in the assay on MDA-MB-231 breast it was 2.21 µM; in the assay with HCT-15 colon, 2.24 µM; in the assay on UACC-62 melanoma, 2.41 µM; in the assay with T-47D breast, 0.876 µM; in the assay on COLO 205 colon, 2.8 µM. The TGI with NCI-H226 lung amounted to 4.15 µM; in the assay on LOX IMVI melanoma, 0.653 µM; with NCI-H522 lung, 2.42 µM; with HOP-92 NSCLC, 3.08 µM.

In the case of `CN1CCN(Cc2ccc3c(NNC(=O)c4ccccc4)nc4cc(F)ccc4n23)CC1`, the GI50 with SW-620 colon was 0.519 µM; with MDA-MB-231 breast it was 0.5 µM; in the assay with HCT-15 colon it was 0.0568 µM; with UACC-62 melanoma, 0.36 µM; in the assay on T-47D breast, 0.593 µM; in the assay with COLO 205 colon, 0.325 µM. In addition, the GI50 with NCI-H226 lung is 0.442 µM; in the assay with LOX IMVI melanoma it was 0.277 µM; in the assay on NCI-H522 lung, 0.55 µM; in the assay on HOP-92 NSCLC, 1.12 µM. Besides, the TGI in the assay on SW-620 colon was 22.4 µM; with MDA-MB-231 breast, 19.2 µM; with HCT-15 colon, more than 49.4 µM; in the assay on UACC-62 melanoma, 3.49 µM; in the assay on T-47D breast it was 22.8 µM; with COLO 205 colon, 13.6 µM. Besides, the TGI with NCI-H226 lung was 9.71 µM; with LOX IMVI melanoma, 12.6 µM; with NCI-H522 lung, 12.9 µM; with HOP-92 NSCLC, 41.5 µM.

Turning to `COc1ccccc1NS(=O)(=O)c1ccc2oc(SC(C)C)nc2c1`, the GI50 with SW-620 colon was 31.6 µM; in the assay with MDA-MB-231 breast, 12.4 µM; in the assay on HCT-15 colon, 29.4 µM; with UACC-62 melanoma, 18.5 µM; in the assay on T-47D breast it was 8.98 µM; in the assay on COLO 205 colon it was 18.6 µM. Moreover, the GI50 with NCI-H226 lung is 10.3 µM; with LOX IMVI melanoma, 12.7 µM; in the assay with NCI-H522 lung it was 10.2 µM. In addition, the TGI in the assay on SW-620 colon is more than 100 µM; in the assay on MDA-MB-231 breast, 52 µM; in the assay on HCT-15 colon it was more than 100 µM; with UACC-62 melanoma, more than 100 µM; in the assay with T-47D breast, more than 100 µM; with COLO 205 colon, 40.1 µM. Moreover, the TGI with NCI-H226 lung was found to be 43.9 µM; in the assay on LOX IMVI melanoma it was 46.4 µM; in the assay on NCI-H522 lung, 75.7 µM; in the assay on HOP-92 NSCLC it was 13 µM.

Take `C=C(C)C(=O)O[C@@H]1C/C(C)=C\[C@H](OC(C)=O)C[C@](C)(O)/C=C2/OC(=O)C(COC(C)=O)=C21`: the TGI in the assay on SW-620 colon was 1.93 µM; with MDA-MB-231 breast it was 2.63 µM; in the assay with HCT-15 colon, 0.786 µM; with UACC-62 melanoma it was 2.1 µM; in the assay with T-47D breast, 22.1 µM; in the assay with COLO 205 colon, 2.37 µM. Also, the TGI in the assay on NCI-H226 lung is 6.17 µM; in the assay on LOX IMVI melanoma, 0.373 µM; with NCI-H522 lung, 0.539 µM; in the assay on HOP-92 NSCLC it was 37.5 µM.

For the origin of these results see PubChem BioAssay (NCI).
